# Tested on: patients with major depressive disorder
# Experiment: not given
# Conditions: MDD patients, meta-analysis; cited from earlier work
SMILES,Rates of gastrointestinal adverse reactions compared to placebo,Tolerability on the gastrointestinal tract among antidepressants
COc1ccc2cccc(CCNC(C)=O)c2c1 [agomelatine],higher rates,
CC(NC(C)(C)C)C(=O)c1cccc(Cl)c1 (centres unmarked) [bupropion],higher rates,
CN(C)CCCC1(c2ccc(F)cc2)OCc2cc(C#N)ccc21 (centres unmarked) [citalopram],higher rates,
CN(C)CC(c1ccc(O)cc1)C1(O)CCCCC1 (centres unmarked) [desvenlafaxine],higher rates,
CNCC[C@H](Oc1cccc2ccccc12)c1cccs1 [duloxetine],higher rates,
CN(C)CCC[C@@]1(c2ccc(F)cc2)OCc2cc(C#N)ccc21 [escitalopram],higher rates,least tolerated
CNCCC(Oc1ccc(C(F)(F)F)cc1)c1ccccc1 (centres unmarked) [fluoxetine],higher rates,
COCCCC/C(=N\OCCN)c1ccc(C(F)(F)F)cc1 [fluvoxamine],higher rates,
CCN(CC)C(=O)[C@@]1(c2ccccc2)C[C@H]1CN [levomilnacipran],higher rates,
CN1CCN2c3ncccc3Cc3ccccc3C2C1 (centres unmarked) [mirtazapine],higher rates,
Fc1ccc([C@@H]2CCNC[C@H]2COc2ccc3c(c2)OCO3)cc1 [paroxetine],higher rates,
CCOc1ccccc1OC(c1ccccc1)C1CNCCO1 (centres unmarked) [reboxetine],higher rates,
CN[C@H]1CC[C@@H](c2ccc(Cl)c(Cl)c2)c2ccccc21 [sertraline],higher rates,least tolerated
COc1ccc(C(CN(C)C)C2(O)CCCCC2)cc1 (centres unmarked) [venlafaxine],higher rates,
Cc1ccc(Sc2ccccc2N2CCNCC2)c(C)c1 [vortioxetine],higher rates,

# Tested on: participants with major depressive disorder (MDD)
# Experiment: Treatment-emergent adverse events (safety), study NCT04476030
# Assay type: in vivo, human
# Conditions: one patient, approximately 1 hour after Compound (1) 50 mg on Day 7
# Method: A randomized, double-blind, parallel-group, active/placebo-controlled study (NCT04476030) in participants with major depressive disorder (MDD) was conducted. The study evaluated the efficacy and safety of Compound (1) 50 mg co-initiated with standard-of-care (SOC) antidepressant therapies (ADTs) (Compound (1)+ADT) vs placebo co-initiated with SOC ADT (placebo+ADT) in adults with MDD. Patients were randomized 1:1 to once-daily, blinded Compound (1)+ADT or placebo+ADT for 14 days then continued open-label SOC ADT for 28 more days.
# An AE could therefore be any unfavorable and unintended sign (including an abnormal laboratory finding), symptom or disease temporally associated with the use of a medicinal (investigational) product whether or not related to the medicinal (investigational) product. In clinical studies, an AE could include an undesirable medical condition occurring at any time, including baseline or washout periods, even if no study treatment had been administered.
# A treatment emergent adverse event (TEAE) was defined as an AE with onset after the start of investigational product (IP; Compound (1) or placebo), or any worsening of a pre-existing medical condition/AE with onset after the start of IP and throughout the study. The term IP included any Sage IP, a comparator, or a placebo administered in a clinical study. […]
row,SMILES,Investigator-assessed relationship of serious TEAE (seizure-like phenomena) to study drug
1,"C[C@@]1(O)CC[C@H]2[C@H](CC[C@@H]3[C@@H]2CC[C@]2(C)[C@@H](C(=O)Cn4cc(C#N)cn4)CC[C@@H]32)C1 [Compound (1), 1-(2-((3R,5R,8R,9R,10S,13S,14S,17S)-3-hydroxy-3,13-dimethylhexadecahydro-1H-cyclopenta[a]phenanthren-17-yl)-2-oxoethyl)-1H-pyrazole-4-carbonitrile]",related

# Tested on: not given
# Experiment: not given
# Conditions: compared to SSRIs and duloxetine; cited from earlier work
row,SMILES,Rates of nausea and vomiting
1,COc1ccc(C(CN(C)C)C2(O)CCCCC2)cc1 (centres unmarked) [venlafaxine],higher rates

# Same assay, conditions: compared to other SSRIs and venlafaxine; cited from earlier work
row,SMILES,Incidence of diarrhea
1,CN[C@H]1CC[C@@H](c2ccc(Cl)c(Cl)c2)c2ccccc21 [sertraline],higher incidence
